# Results reported in patent US11034717B2, “Farnesoid X receptor modulators” (Intercept Pharmaceuticals, Inc., priority 2015, dated 2021).
# Like-named read-outs stand apart in the source and are kept apart here.
# Key:
# CYP2D6 = CYP2D6 (Homo sapiens (Human), UniProt P10635); assay: CYP450 inhibition, fluorescent substrate, recombinant baculosomes; assay type: in vitro ADME; conditions: read-out: CYP2D6 IC50
# Experimental: (§1) To evaluate the potential of a compound of the invention for drug-drug interactions, the six main CYP450 isoforms (CYP1A2, CYP2C9, CYP2C19, CYP2D6, CYP2E1, CYP3A4) are investigated (Obach, et al., J Pharmacol. Exp. Ther, 2006, 316, 336-348).
# (§2) To determine interaction between a compound of the invention and cytochrome P450 enzymes, the compound of the invention is analyzed by its capacity to inhibit (or not) the production of a fluorescent signal, using recombinant CYP450 proteins (baculosomes; Invitrogen), substrates and inhibitors (Bidstrup, et al., Br J Clin. Pharmacol, 2003, 56, 305-14). As a positive control, a selective inhibitor for each CYP450 isoform is tested in the same plate.
# CYP2C19 = CYP2C19 (Homo sapiens (Human), UniProt P33261); assay: as above; assay type: in vitro ADME; conditions: read-out: CYP2C19 IC50
# Sequence of CYP2C19 (P33261 whole entry): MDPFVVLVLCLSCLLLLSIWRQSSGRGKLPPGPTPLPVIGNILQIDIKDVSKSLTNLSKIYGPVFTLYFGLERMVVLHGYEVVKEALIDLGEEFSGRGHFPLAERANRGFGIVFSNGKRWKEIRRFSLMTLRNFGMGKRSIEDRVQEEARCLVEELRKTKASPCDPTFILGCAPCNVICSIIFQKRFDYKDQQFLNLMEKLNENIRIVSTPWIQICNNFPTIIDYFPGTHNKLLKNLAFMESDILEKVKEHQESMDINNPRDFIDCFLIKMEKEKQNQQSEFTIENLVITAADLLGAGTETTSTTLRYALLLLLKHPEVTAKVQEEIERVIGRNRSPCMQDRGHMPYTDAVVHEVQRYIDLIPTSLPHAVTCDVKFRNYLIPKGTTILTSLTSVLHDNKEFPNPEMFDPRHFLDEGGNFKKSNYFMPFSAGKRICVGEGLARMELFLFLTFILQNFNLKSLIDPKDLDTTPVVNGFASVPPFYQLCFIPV
# Experimental: as §1, §2
# CYP2C9 = CYP2C9 (Homo sapiens (Human), UniProt P11712); assay: as above; assay type: in vitro ADME; conditions: read-out: CYP2C9 IC50
# Sequence of CYP2C9 (P11712 whole entry): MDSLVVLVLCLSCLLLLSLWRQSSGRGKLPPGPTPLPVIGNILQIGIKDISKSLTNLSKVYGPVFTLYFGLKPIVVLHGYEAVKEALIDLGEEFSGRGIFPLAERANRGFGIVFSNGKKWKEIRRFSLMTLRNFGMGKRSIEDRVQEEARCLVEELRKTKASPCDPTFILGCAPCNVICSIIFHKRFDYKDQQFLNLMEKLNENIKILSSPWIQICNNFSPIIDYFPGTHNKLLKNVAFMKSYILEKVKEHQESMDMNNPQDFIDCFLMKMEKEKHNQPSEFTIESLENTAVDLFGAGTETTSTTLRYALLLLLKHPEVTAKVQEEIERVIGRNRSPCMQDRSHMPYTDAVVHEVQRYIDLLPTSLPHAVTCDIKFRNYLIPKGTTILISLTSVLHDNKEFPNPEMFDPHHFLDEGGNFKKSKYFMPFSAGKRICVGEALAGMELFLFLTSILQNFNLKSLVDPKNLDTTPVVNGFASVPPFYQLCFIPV
# Experimental: as §1, §2
# CYP3A4 = CYP3A4 (Homo sapiens (Human), UniProt P08684); assay: as above; assay type: in vitro ADME
# Experimental: as §1, §2
# CYP2E1 = CYP2E1 (Homo sapiens (Human), UniProt P05181); assay: as above; assay type: in vitro ADME; conditions: read-out: CYP2E1 IC50
# Sequence of CYP2E1 (P05181 whole entry): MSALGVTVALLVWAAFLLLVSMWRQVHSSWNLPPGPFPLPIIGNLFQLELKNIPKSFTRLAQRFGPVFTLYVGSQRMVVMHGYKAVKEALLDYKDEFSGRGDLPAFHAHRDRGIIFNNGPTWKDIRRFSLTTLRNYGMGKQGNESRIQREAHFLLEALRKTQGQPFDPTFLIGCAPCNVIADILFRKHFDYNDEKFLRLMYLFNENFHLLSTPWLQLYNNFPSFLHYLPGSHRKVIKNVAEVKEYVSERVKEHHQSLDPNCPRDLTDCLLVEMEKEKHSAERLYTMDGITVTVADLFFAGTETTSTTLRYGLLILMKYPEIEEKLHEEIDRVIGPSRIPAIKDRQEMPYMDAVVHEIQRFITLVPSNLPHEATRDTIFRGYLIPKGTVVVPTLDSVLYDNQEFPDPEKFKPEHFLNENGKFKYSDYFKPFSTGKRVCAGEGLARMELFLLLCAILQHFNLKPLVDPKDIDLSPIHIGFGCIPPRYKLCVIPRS
# Experimental: as §1, §2
# CYP1A2 = CYP1A2 (Homo sapiens (Human), UniProt P05177); assay: as above; assay type: in vitro ADME
# Sequence of CYP1A2 (P05177 whole entry): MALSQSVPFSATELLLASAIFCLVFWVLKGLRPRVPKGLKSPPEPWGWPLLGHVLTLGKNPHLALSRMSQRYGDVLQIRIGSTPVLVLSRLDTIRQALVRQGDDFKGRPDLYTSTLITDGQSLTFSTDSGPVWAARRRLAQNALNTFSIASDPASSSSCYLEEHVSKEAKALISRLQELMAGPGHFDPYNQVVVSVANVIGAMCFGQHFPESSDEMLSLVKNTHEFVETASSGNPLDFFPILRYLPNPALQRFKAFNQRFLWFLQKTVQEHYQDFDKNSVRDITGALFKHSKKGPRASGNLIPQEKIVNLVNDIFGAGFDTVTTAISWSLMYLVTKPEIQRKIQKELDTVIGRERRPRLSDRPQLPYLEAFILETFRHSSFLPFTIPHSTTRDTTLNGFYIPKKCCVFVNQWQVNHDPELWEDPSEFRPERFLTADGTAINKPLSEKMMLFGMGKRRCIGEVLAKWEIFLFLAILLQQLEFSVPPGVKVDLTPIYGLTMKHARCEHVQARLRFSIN
# Experimental: as §1, §2
# [1] = tested on: nuclear receptors LXRP, PXR, CAR, PPARα, PPARγ, RAR, RARα, VDR, TR, PR, RXR, GR, and ER; assay: Nuclear receptor selectivity profile (AlphaScreen); assay type: biochemical; conditions: for Activation of nuclear receptor panel, agonist mode: dose response to 200 μM; for Activity on nuclear receptor panel, antagonist mode: fixed concentration at 10 μM
# Experimental: Using the AlphaScreen assay, the selectivity of a compound of the invention against the following nuclear receptors involved in the metabolic pathways can be evaluated: LXRP, PXR, CAR, PPARα, PPARα, PPARγ, RAR, RARα, VDR, TR, PR, RXR, GR, and ER.
# Compounds L1, 3, 5, 6 and 7 were tested against the panel of available nuclear receptor in both agonist and antagonist mode.
# hERG potassium channel = hERG potassium channel (Homo sapiens (Human), UniProt Q12809); assay: biochemical
# Sequence of hERG potassium channel (Q12809 whole entry): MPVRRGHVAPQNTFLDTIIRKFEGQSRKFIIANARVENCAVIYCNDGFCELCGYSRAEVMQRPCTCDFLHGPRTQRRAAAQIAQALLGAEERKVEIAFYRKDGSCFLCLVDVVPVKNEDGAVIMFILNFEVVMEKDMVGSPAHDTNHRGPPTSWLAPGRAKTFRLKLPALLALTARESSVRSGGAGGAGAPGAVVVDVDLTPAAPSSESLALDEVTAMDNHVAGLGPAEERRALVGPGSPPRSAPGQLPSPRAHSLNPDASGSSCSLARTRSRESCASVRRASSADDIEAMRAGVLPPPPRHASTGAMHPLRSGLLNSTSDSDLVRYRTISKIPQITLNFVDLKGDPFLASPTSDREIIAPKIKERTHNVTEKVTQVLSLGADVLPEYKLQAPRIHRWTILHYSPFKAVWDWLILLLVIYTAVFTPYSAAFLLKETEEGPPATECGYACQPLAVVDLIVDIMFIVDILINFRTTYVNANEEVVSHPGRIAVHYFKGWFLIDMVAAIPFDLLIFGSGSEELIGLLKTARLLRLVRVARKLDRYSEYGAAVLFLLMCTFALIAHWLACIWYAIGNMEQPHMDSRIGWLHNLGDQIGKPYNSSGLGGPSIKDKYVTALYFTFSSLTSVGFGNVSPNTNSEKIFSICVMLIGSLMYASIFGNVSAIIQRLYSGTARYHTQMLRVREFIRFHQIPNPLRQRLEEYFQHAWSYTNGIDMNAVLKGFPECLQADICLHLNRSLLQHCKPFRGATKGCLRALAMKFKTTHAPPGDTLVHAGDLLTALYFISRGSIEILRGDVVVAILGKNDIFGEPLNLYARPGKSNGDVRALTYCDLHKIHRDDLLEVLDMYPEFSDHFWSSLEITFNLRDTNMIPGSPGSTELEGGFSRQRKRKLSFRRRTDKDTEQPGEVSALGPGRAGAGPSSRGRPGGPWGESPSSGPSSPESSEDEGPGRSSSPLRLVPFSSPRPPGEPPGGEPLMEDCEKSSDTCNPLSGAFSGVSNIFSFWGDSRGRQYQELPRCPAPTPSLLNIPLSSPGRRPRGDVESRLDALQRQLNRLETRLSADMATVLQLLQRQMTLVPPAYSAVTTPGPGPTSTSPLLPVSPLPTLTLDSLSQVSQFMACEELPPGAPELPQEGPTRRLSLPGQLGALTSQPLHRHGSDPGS
# From the text: The assay is based on the assumption that the hERG potassium channel activity contributes to the resting membrane potential in permanently transfected cells, and thus a block of hERG channels should result in a depolarization of the cell membrane. The assay is designed to identify potential hERG channel blockers by producing data that accurately correlates with patch-clamp electrophysiology studies.
# Membrane preparations from Chinese hamster ovary cells stably transfected with hERG potassium channel are used to evaluate the potential inhibitory effect of a compound of the invention on this channel using the Predictor™ fluorescence polarization assay. Reduction of membrane polarization as a result of inhibition of the hERG potassium channel is directly correlated with a reduction of the fluorescence polarization (FP).
# An assay window more than 100 mP (millipolarization) is considered good. The non-linear regression curves are obtained by GraphPad Prism (GraphPad Software Inc.) analysis, to calculate the IC50 values.
# mTGR5 = mTGR5 (Mus musculus (Mouse), UniProt Q80SS6); assay: Cross species TGR5 activity, CHO cells, mouse; assay type: cell-based
# Sequence of mTGR5 (Q80SS6 whole entry): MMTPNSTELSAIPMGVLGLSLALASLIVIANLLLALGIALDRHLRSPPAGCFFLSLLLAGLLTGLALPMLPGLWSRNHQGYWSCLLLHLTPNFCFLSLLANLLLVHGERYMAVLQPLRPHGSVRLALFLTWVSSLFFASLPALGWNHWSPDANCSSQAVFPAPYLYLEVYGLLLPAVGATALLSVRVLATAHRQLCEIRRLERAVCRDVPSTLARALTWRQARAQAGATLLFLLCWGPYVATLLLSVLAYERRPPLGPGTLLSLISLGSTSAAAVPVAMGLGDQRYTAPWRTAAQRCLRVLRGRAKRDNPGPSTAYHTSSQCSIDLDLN
# HepG2 cells [2] = assay: In-vitro cytotoxicity, ATP content; assay type: cell-based; conditions: Table 5B, HepG2
# From the text: To evaluate in-vitro cytotoxicity of a compound of the invention, two different assay methods are employed. The assays evaluate cell viability by measuring ATP levels and cytotoxicity by measuring LDH release. […] It has been called the “molecular unit of currency” when it comes to intracellular energy transfer.
# (§3) An additional method to determine the viability of cells is to detect the integrity of the membrane that defines the cellular compartmentalization. Measuring the leakage of components out of the cytoplasm, in damaged cell membranes, indicates loss of membrane integrity, and LDH release is the method used to determine common toxicity in cells. HepG2 cells are treated with a compound of the invention, and serial dilutions are performed. LCA dilutions are added to the plated cells as assay controls together with no-cell and untreated cells. The assay is performed in triplicate for each test compound concentration.
# dTGR5 = assay: Cross species TGR5 activity, CHO cells, dog; assay type: cell-based
# rTGR5 = rTGR5 (Rattus norvegicus (Rat), UniProt Q80T02); assay: Cross species TGR5 activity, CHO cells, rat; assay type: cell-based
# Sequence of rTGR5 (Q80T02 whole entry): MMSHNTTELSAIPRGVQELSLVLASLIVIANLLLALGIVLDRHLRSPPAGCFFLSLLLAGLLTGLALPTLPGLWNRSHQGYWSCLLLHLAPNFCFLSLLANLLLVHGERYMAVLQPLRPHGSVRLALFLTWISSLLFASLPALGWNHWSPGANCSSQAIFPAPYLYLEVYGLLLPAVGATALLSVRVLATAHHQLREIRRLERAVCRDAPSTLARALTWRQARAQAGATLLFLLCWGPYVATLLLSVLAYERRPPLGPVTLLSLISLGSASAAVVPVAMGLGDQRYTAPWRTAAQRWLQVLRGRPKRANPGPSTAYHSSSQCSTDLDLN
# [3] = 1-octanol-water partition coefficient of ionized species; assay type: physicochemical
# Experimental: (§4) Physiochemical properties of a compound of the invention such as water solubility, critical micellar concentration, surface tension, and LogPA were determined using methods known in the art.
# HepG2 cells [4] = assay: In-vitro cytotoxicity, membrane integrity (LDH release); assay type: cell-based
# From the text: (§5) To evaluate in-vitro cytotoxicity of a compound of the invention, two different assay methods are employed. The assays evaluate cell viability by measuring ATP levels and cytotoxicity by measuring LDH release. Adenosine Triphosphate (ATP) nucleotide represents the source of energy at the basic molecular level, as it is a multifunctional molecule that is used in every cell as a coenzyme and is an integral part of the mitochondrial DNA (Kangas, et al., Medical Biology, 1984, 62, 338-343; Crouch, et al., J Immunol. Methods, 1993, 160, 81-88; and Petty, et al., J Biolumin. Chemilumin. 1995, 10, 29-34). It has been called the “molecular unit of currency” when it comes to intracellular energy transfer.
# as §3
# [5] = as above; assay type: cell-based; conditions: human; HepG2; read-out: Membrane Integrity (LDH measure) LC50
# From the text: as §5, §3
# hTGR5 [6] = biological target: T1, hTGR5 (Homo sapiens (Human), UniProt Q8TDU6); assay: HTR-FRET intracellular cAMP assay in NCI-H716 cells; assay type: cell-based; conditions: Table 2
# T1 sequence (Q8TDU6 whole entry): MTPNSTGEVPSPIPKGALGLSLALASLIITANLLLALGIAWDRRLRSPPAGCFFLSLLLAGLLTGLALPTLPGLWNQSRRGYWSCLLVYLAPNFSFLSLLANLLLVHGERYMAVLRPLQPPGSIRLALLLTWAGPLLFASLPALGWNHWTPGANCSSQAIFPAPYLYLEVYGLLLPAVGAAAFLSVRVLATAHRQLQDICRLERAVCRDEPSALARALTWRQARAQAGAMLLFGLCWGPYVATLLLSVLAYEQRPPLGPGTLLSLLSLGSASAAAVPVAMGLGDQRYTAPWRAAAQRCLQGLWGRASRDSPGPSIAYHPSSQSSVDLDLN
# hTGR5 [7] = biological target: T1, hTGR5; assay: Cross species TGR5 activity, CHO cells, human; assay type: cell-based
# [8] = tested on: FXR target genes: BSEP, SHP, OSTβ and CYP7A1; assay: FXR target gene panel, quantitative RT-PCR in HepG2 cells; assay type: cell-based; conditions: stimulation for 18 hours
# Experimental: To evaluate the capacity of a compound of the invention to modulate FXR target genes, quantitative RT-PCR assays are performed. HepG2 cells are selected as a relevant cell line to determine whether a compound of the invention can regulate the endogenous FXR genetic network. The ability of a compound of the invention to induce FXR target genes is assessed by isolating total RNA from cells treated overnight with 1 μM of compounds A, B, and a compound of the invention.
# FXR regulates the expression of several target genes involved in BA homeostasis. Briefly, FXR plays a central role in several metabolic pathways, including i.e., lipid metabolism, bile-acids metabolism, and carbohydrate metabolism. Regarding gene expression profiling, the genes encoding proteins involved in lipid metabolism include, e.g., APOCII, APOE, APOAI, SREBP-1C, VLDL-R, PLTP, and LPL; the genes encoding proteins involved in bile-acids metabolism include, e.g., OSTα/β, BSEP, MRP2, SHP, CYP7A1, FGF19, SULT2A1, and UGT2B4; and the genes encoding proteins involved in carbohydrate metabolism include, e.g., PGCla, PEPCK, and GLUT2. FXR target genes: BSEP, SHP, OSTβ and CYP7A1 were evaluated following stimulation of Compounds 3, 5, 6, and 7 on HepG2 cells for 18 hours. Compound L1 was used as a control.
# [9] = Critical micellar concentration; assay type: physicochemical; conditions: determined in […] NaCl water solution
# Experimental: as §4
# [10] = Blue substrate, read-out: CYP3A4 (Blue substrate) IC50
# [11] = Green substrate, read-out: CYP3A4 (Green substrate) IC50
# Sequence of CYP2D6 (P10635 whole entry, canonical isoform): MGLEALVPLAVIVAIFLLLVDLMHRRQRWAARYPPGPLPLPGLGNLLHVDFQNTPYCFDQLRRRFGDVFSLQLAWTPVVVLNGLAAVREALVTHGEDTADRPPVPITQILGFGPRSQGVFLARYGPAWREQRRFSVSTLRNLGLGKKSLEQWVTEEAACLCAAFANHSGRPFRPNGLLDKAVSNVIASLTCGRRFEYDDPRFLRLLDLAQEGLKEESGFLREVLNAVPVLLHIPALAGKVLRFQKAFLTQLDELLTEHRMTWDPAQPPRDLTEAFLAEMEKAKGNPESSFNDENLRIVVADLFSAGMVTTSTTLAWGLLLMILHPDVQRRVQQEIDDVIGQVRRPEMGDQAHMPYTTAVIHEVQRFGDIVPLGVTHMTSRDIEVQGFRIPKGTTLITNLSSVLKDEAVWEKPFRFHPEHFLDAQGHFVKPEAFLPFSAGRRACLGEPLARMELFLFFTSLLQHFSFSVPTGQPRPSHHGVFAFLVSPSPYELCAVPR
SMILES,IC50 (CYP2D6),IC50 (CYP2C19),IC50 (CYP2C9),IC50 (CYP3A4; [10]),IC50 (CYP3A4; [11]),IC50 (CYP2E1),IC50 (CYP1A2),"Activation of nuclear receptor panel, agonist mode [1]","Activity on nuclear receptor panel, antagonist mode [1]",mTGR5 CHO EC50 (mTGR5),ATP Content EC50 (HepG2 cells [2]),rTGR5 CHO EC50 (rTGR5),LogPA−: 1-octanol-water partition coefficient as ionized species [3],Membrane Integrity (LDH measure) LC50 (HepG2 cells [4]),HTR-FRET (cAMP) Human TGR5 EC50 (hTGR5 [6]),hTGR5 CHO EC50 (hTGR5 [7]),IC50 (hERG potassium channel),hERG potassium channel inhibition (in words) (hERG potassium channel),"Modulation of FXR target genes BSEP, SHP, OSTβ and CYP7A1 [8]",EC50 (dTGR5),other results
"CC[C@H]1[C@@H](O)C2C3CC[C@H]([C@H](C)CCC(=O)O)[C@@]3(C)C[C@H](O)C2[C@@]2(C)CC[C@@H](O)C[C@@H]12 (stereo partly drawn) [Compound L1, reference compound]",> 10 µM,> 10 µM,> 10 µM,> 10 µM,> 10 µM,> 10 µM,> 10 µM,Neither compound activated any of the receptors,Neither compound activated any of the receptors,No activity,No toxicity,No activity,0.84,No toxicity,,,,,,,"hERG potassium channel inhibition (in words) (hERG potassium channel; Table 7 footnote): Compounds L1, 3, 5, 6 and 7 did not inhibit hERG potassium channel.; IC50 (hERG potassium channel; read-out: hERG inhibition IC50, Table 7): > 100 µM; dTGR5 CHO EC50 (dTGR5): No activity"
"C[C@H](CCC(=O)O)[C@H]1CC[C@H]2[C@@H]3CC[C@@H]4C[C@H](O)CC[C@]4(C)[C@H]3CC[C@]12C [LCA, lithocholic acid, reference compound]",,,,,,,,,,,,,,,,,,,,,EC50 (HepG2 cells [2]; Homo sapiens): 75 ± 5 µM; CC50 [5]: 100 ± 5 µM
"CC[C@H]1[C@@H](O)C2C3CC[C@H]([C@H](C)CCc4nc(=O)o[nH]4)[C@@]3(C)C[C@H](O)C2[C@@]2(C)CC[C@@H](O)C[C@@H]12 (stereo partly drawn) [Compound 7, 3α,7α,11β-Trihydroxy-6α-ethyl-23-(1,2,4-oxadiazol-5-oxo-3-yl)-24-nor-5β-cholane]",> 10 µM,> 10 µM,> 10 µM,> 10 µM,> 10 µM,> 10 µM,> 10 µM,Neither compound activated any of the receptors,Neither compound activated any of the receptors,,No toxicity,No activity,2.0,No toxicity,No activity,No activity,> 100 µM,"Compounds L1, 3, 5, 6 and 7 did not inhibit hERG potassium channel.",significantly bind to FXR in hepatic cells modulating FXR target genes,7.6 ± 0.01 µM,EC50 (mTGR5): 9.5 ± 2 µM
"CC[C@H]1[C@@H](O)C2C3CC[C@H]([C@H](C)Cc4nc(=O)o[nH]4)[C@@]3(C)C[C@H](O)C2[C@@]2(C)CC[C@@H](O)C[C@@H]12 (stereo partly drawn) [Compound 6, 3α,7α,11β-trihydroxy-6α-ethyl-22-(1,2,4-oxadiazol-5-oxo-3-yl)-23,24-bisnor-5β-cholane]",> 10 µM,> 10 µM,> 10 µM,> 10 µM,> 10 µM,> 10 µM,> 10 µM,Neither compound activated any of the receptors,Neither compound activated any of the receptors,No activity,No toxicity,No activity,1.7,No toxicity,No activity,No activity,> 100 µM,"Compounds L1, 3, 5, 6 and 7 did not inhibit hERG potassium channel.",significantly bind to FXR in hepatic cells modulating FXR target genes,1.5 ± 0.3 µM,CMC: Critical Micellar Concentration [9]: 28 mM
